From article PMC10069031 (European Journal of Medical Research, 2023)

How the values were obtained:
Type in all cases: in vivo, mouse
[1] = test system: CT26 tumors; assay: Growth of subcutaneous CT26 tumors in BALB/c mice; settings: CRC tumors in mice
Procedure: CT26 tumor cells were cultivated in RPMI 1640 with 2 mM L-glutamine (Gibco, Invitrogen GmbH) containing 10% fetal bovine serum (Gibco) at 37 °C and 5% CO2. Cell lines were maintained in culture for no longer than 6 months, and mycoplasma contamination was excluded by enzymatic test (MycoAlert, Lonza) prior to in vivo application. Tumor cells (2 × 10^6) were transplanted subcutaneously into 6- to 8-week-old female BALB/c mice. Control mice were subjected to sham surgery without tumor cell transplantation. Blood and tumor samples were collected from untreated control and tumor-bearing mice on days 4 and 8 (n = 3 mice/group). […] Tumor diameter was measured by caliper and body weight was determined at least twice weekly. Tumor volume was calculated using the formula 0.5 × a × b^2, where a and b are the long and short diameters of the tumor, respectively.
For tissue collection, mice were killed at predetermined time points. […] Tumors were removed, and their weights determined, then divided into three pieces, one of which was snap-frozen, one formalin fixed and paraffin embedded, and one weighed and used for FC analyses. […]
An overall comparison between treatment groups of the endpoints measured on CT26 and MC38 mice after they had been killed was performed using different statistical models. […]

[2] = PK of REG in plasma and CT26 tumor tissue; settings: after the last dose, CT26 mice
Procedure: CT26 tumor cells were cultivated in RPMI 1640 with 2 mM L-glutamine (Gibco, Invitrogen GmbH) containing 10% fetal bovine serum (Gibco) at 37 °C and 5% CO2. Cell lines were maintained in culture for no longer than 6 months, and mycoplasma contamination was excluded by enzymatic test (MycoAlert, Lonza) prior to in vivo application. Tumor cells (2 × 10^6) were transplanted subcutaneously into 6- to 8-week-old female BALB/c mice. Control mice were subjected to sham surgery without tumor cell transplantation. Blood and tumor samples were collected from untreated control and tumor-bearing mice on days 4 and 8 (n = 3 mice/group). […] For interim analysis, blood and tumor tissue were collected from each group (n = 3 mice/group) after 7 days of treatment. For pharmacokinetic (PK)/pharmacodynamic (PD) relationship analysis, tissues were taken 24 h after the penultimate dose and 1, 3, 7, and 24 h after the ultimate dose. Tumor diameter was measured by caliper and body weight was determined at least twice weekly. Tumor volume was calculated using the formula 0.5 × a × b^2, where a and b are the long and short diameters of the tumor, respectively.
PK parameters, namely AUC(0–24)ss and Cmax, were calculated from plasma and tumor concentrations using a noncompartmental analysis.

[3] = test system: TAM-associated genes; assay: qRT-PCR of TAM-associated genes in CT26 tumors; settings: REG(V1) vs V1, qRT-PCR

## CNC(=O)c1cc(Oc2ccc(NC(=O)Nc3ccc(Cl)c(C(F)(F)F)c3)c(F)c2)ccn1 [REG, Regorafenib]
[1]
  partial or complete remission: did not induce partial or complete remission
  tumor growth vs vehicle: significantly inhibited
[2]
  time of highest concentration of REG (Cmax) in plasma: ≤ 3 h
[3]
  transcript frequency of Adgre1 (F4/80): significantly reduced
  transcript frequency of Arg1: unchanged
  transcript frequency of CSF1R: significantly reduced
  transcript frequency of Hilpda: unchanged
  transcript frequency of Maf: reduced
  transcript frequency of MafB: unchanged
  transcript frequency of Mgl2: reduced
  transcript frequency of Mrc1 (CD206): significantly reduced
  transcript frequency of Nos2: unchanged
  transcript frequency of VEGFA: unchanged
